Measured values published in patent US20250084091A1, “INHIBITORS OF SARS-COV-2” (The Texas A&M University System, priority 2021, published 2025).
pEC50, pIC50: −log10 of the molar value. Where two headings read alike, the source gives them in different places.

Legend:
[1] = test system: SARS-CoV-2 (strain USA-WA1/2020); assay: microbe, parasite or virus in culture; format: cell-based
HeLa-ACE2 cells = assay: cells; format: cell-based; conditions: Table 2, total cell count in infected plates
[2] = molecular target: SARS-CoV-2 main protease (Mpro) (Severe acute respiratory syndrome coronavirus 2, UniProt P0DTD1); assay: biochemical; conditions: read-out: Enzyme IC50
[3] = Uninfected host cell cytotoxicity counter screen; format: cell-based; conditions: human
Protocol: Uninfected host cell cytotoxicity counter screen: HeLa-ACE2 cells were maintained as described for the infection assay and seeded in the assay-ready plates at 400 cells/well. Plates were incubated for 24 hours at 37° C. 5% CO2. To assess cell viability, the Image-iT DEAD green reagent was used according to manufacturer instructions. Cells were fixed with 4% paraformaldehyde, and counterstained with DAPI. Fixed cells are imaged as described above.
Viral replication data analysis: Data from the primary screen and the host cell cytotoxicity screen are normalized to neutral (DMSO) […] inhibitor controls (2.5 μM Remdesivir for antiviral effect and 10 μM puromycin for infected host cell toxicity). For the uninfected host cell cytotoxicity counter-screen 40 μM puromycin is used as the positive control. Concentration response experiments will be tested in triplicate.

[4] = Severe acute respiratory syndrome coronavirus 2, Table 2, SARS-CoV-2 infected HeLa-ACE2 cells, read-out: CoV-2 HeLa EC50
[5] = Severe acute respiratory syndrome coronavirus 2, HeLa-ACE2, read-out: CoV-2 HeLa EC50, Table 2, SARS-CoV-2 infected HeLa-ACE2 cells
[6] = Severe acute respiratory syndrome coronavirus 2, HeLa, Table 3, read-out: CoV-2 HeLa EC50
[7] = Table 3, select example compounds against mpro

| Compound | pEC50 [1, 4] | pEC50 (HeLa-ACE2 cells) | pIC50 ([2]; Table 2) | CC50 at 24 h [3] [µM] | pEC50 [1, 5] | pEC50 [1, 6] | pIC50 [2, 7] |
| --- | --- | --- | --- | --- | --- | --- | --- |
| COc1cccc(C(c2ccccc2)N2CCN(C(=O)c3cncc(F)c3)CC2)c1 (stereo not shown) [MKP-1204, 1-(5-fluoropyridine-3-carbonyl)-4-[(3-methoxyphenyl)(phenyl)methyl] piperazine] | 5.18 | < 5.02 | 5.64 | > 39.8 |  |  |  |
| O=C(c1cccnc1)N1CCN(C(c2ccc(F)cc2)c2ccc(F)cc2)CC1 [AA-598, (4-(bis(4-fluorophenyl)methyl)piperazin-1-yl)(yridine-3-yl)methanone] |  | < 5.02 | 5.72 | > 39.8 | < 5.02 |  |  |
| Cc1cncc(C(=O)N2CCN(C(c3ccccc3)c3ccccc3)CC2=O)c1 [AA-637, 4-benzhydryl-1-(5-methylnicotinoyl)piperazin-2-one] |  | < 5.02 | 7.05 | > 39.8 | < 5.02 |  |  |
| NC(=O)c1cncc(C(=O)N2CCN(C3c4ccccc4CCc4ccccc43)CC2)c1 [ZS-347, 5-[4-(2-tricyclo[9.4.0.03,8]pentadeca-1(11),3(8),4,6,12,14-hexaenyl)piperazine-1-carbonyl]pyridine-3-carboxamide] | 5.37 | < 5.02 | 5.77 | > 39.8 |  |  |  |
| Cc1cncc(C(=O)N2CCC(=C3c4ccccc4CS(=O)(=O)c4ccccc43)CC2)c1 [NZ-801, [4-(5,5-dioxo-6H-benzo[c][1]benzothiepin-11-ylidene)-1-piperidyl]-(5-methyl-3-pyridyl)methanone] | 7.38 | 7.09 | 7.25 | > 39.8 |  | 7.38 | 7.92 |
| O=C(c1cncc2cc[nH]c12)N1CCN(C2c3ccccc3CS(=O)(=O)c3ccccc32)CC1 (stereo not shown) [NZ-808, [4-(5,5-dioxo-6,11-dihydrobenzo[c][1]benzothiepin-11-yl)piperazin-1-yl]-(1H-pyrrolo[3,2-c]pyridin-7-yl)methanone] | 7.60 | 7.52 | 7.49 | > 39.8 |  | 7.60 | 8.00 |
| O=C(c1cncc(Br)c1)N1CCC(=C2c3ccccc3CS(=O)(=O)c3ccccc32)CC1 [NZ-802, (5-bromo-3-pyridyl)-[4-(5,5-dioxo-6H-benzo[c][1]benzothiepin-11-ylidene)-1-piperidyl]methanone] | 7.22 | 7.39 | 7.17 | > 39.8 |  |  |  |
| O=C(c1cncc2nc[nH]c12)N1CCC(=C2c3ccccc3CS(=O)(=O)c3ccccc32)CC1 [NZ-803, [4-(5,5-dioxo-6H-benzo[c][1]benzothiepin-11-ylidene)-1-piperidyl]-(1H-imidazo[4,5-c]pyridin-7-yl)methanone] | 6.74 | 6.49 | 7.04 | > 39.8 |  |  |  |
| Cc1cncc(C(=O)N2CCN(C(c3ccccc3)c3ccc(S(C)(=O)=O)cc3)CC2)c1 (stereo not shown) [NZ-799, 1-[(4-methanesulfonylphenyl)(phenyl)methyl]-4-(5-methylpyridine-3-carbonyl)piperazine] | 5.59 | 5.18 | 5.91 | > 39.8 |  |  |  |
| Cc1cncc(C(=O)N2CCN(C3c4ccccc4C=Cc4ccccc43)CC2)c1 [NZ-784, (5-methyl-3-pyridyl)-[4-(2-tricyclo[9.4.0.03,8]pentadeca-1(11),3(8),4,6,9,12,14-heptaenyl)piperazin-1-yl]methanone] | 6.44 | < 5.02 | 7.06 | 39.4 |  |  |  |
| O=C(c1cncc(Cl)c1)N1CCN(C(c2ccccc2)c2cccc(F)c2)CC1 (stereo not shown) [MKP-1227, 1-(5-chloropyridine-3-carbonyl)-4-[(3-fluorophenyl)(phenyl)methyl]piperazine] | 6.34 | 6.21 | 7.06 | > 39.8 |  |  |  |
| Cc1ccncc1C(=O)N1CCN(C(c2ccccc2)c2ccccc2)CC1 [AA-611, (4-benzhydrylpiperazin-1-yl)(4-methylpyridin-3-yl)methanone] |  | < 5.02 | 5.60 | > 39.8 | < 5.02 |  |  |
| COc1cncc(C(=O)N2CCN(C3c4ccccc4CCc4ccccc43)CC2)c1 [ZS-319, (5-methoxy-3-pyridyl)-[4-(2-tricyclo[9.4.0.03,8]pentadeca-1(11),3(8),4,6,12,14-hexaenyl)piperazin-1-yl]methanone] | 6.04 | < 5.02 | 6.68 | 32.1 |  |  |  |
| O=C(c1cncc(O)c1)N1CCN(C(c2ccccc2)c2ccccc2)CC1 [AA-599, (4-benzhydrylpiperazin-1-yl)(5-hydroxypyridin-3-yl)methanone] | 5.22 | < 5.02 | 5.80 | > 39.8 |  |  |  |
| Cc1cncc(C(=O)N2CCN(C(c3ccc(F)cc3)c3ccccc3F)CC2)c1 (stereo not shown) [MKP-1277, 1-[(2-fluorophenyl)(4-fluorophenyl)methyl]-4-(5-methylpyridine-3-carbonyl)piperazine] | 6.13 | 5.57 | 6.82 | > 39.8 |  |  |  |
| O=C(c1cncc2[nH]ccc12)N1CCN(C2c3ccccc3CS(=O)(=O)c3ccccc32)CC1 (stereo not shown) [NZ-809, [4-(5,5-dioxo-6,11-dihydrobenzo[c][1]benzothiepin-11-yl)piperazin-1-yl]-(1H-pyrrolo[2,3-c]pyridin-4-yl)methanone] | 7.06 | 6.95 | 7.37 | > 39.8 |  | 7.06 | 7.82 |
| O=C(c1cnccn1)N1CCN(C(c2ccccc2)c2ccccc2)CC1 [AA-579, (4-benzhydrylpiperazin-1-yl)(pyrazin-2-yl)methanone] |  | < 5.02 | 5.11 | > 39.8 | < 5.02 |  |  |
| O=C(c1cncc(Cl)c1)N1CCC(=C(c2ccccc2)c2ccccc2)CC1 [NZ-781, 3-chloro-5-[4-(diphenylmethylidene)piperidine-1-carbonyl]pyridine] | 5.98 | < 5.02 | 6.96 | 35.8 |  |  |  |
| O=S1(=O)Cc2ccccc2C(N2CCC(C(O)c3cccnc3)CC2)c2ccccc21 (stereo not shown) [NZ-806, [1-(5,5-dioxo-6,11-dihydrobenzo[c][1]benzothiepin-11-yl)-4-piperidyl]-(3-pyridyl)methanol] |  | < 5.02 | 4.72 | > 39.8 | < 5.02 |  |  |
| COc1cncc(C(=O)N2CCN(C(c3ccccc3)c3ccccc3)CC2)c1 [AA-589, (4-benzhydrylpiperazin-1-yl)(5-methoxypyridin-3-yl)methanone] | 5.84 | < 5.02 | 6.32 | > 39.8 |  |  |  |
| O=C(c1cncc(Br)c1)N1CCC(C(O)(c2ccccc2)c2ccccc2)CC1 [NZ-770, [1-(5-bromopyridine-3-carbonyl)piperidin-4-yl]diphenylmethanol] | 6.29 | < 5.02 | 6.42 | > 39.8 |  |  |  |
| O=C(c1cncc(F)c1)N1CCC(=C(c2ccccc2)c2ccccc2)CC1 [NZ-780, 3-[4-(diphenylmethylidene)piperidine-1-carbonyl]-5-fluoropyridine] | 5.86 | < 5.02 | 6.51 | 30.1 |  |  |  |
